Data reported in patent publication US20190231771A1, “METHODS FOR TREATMENT AND PREVENTION OF OPIOID INDUCED CONSTIPATION USING ORAL COMPOSITIONS OF METHYLNALTREXONE” (Salix Pharmaceuticals, Ltd., priority 2011, published 2019).
“And” between values parts separate entries of the source, which are not always exact repeats. Equal values may be shown once.

Experiments:
[1] = Study A: single and multiple dose pharmacokinetics after subcutaneous 12 mg methylnaltrexone; assay type: in vivo, human; details: for AUC(0-t) / Cmax: sc, 12 mg; for AUC(0-t): read-out: AUC0-24; for Cmax: read-out: Cmax
Experimental: Presented herein is a clinical pharmacokinetics study, Study C, as well as Studies A and B. Study A investigated the single and multiple dose pharmacokinetics of methylnaltrexone (MNTX) and its metabolites (M2: methylnaltrexone sulfate; M4: 6α-methylnaltrexol; and M5: 6β-methylnaltrexol) following the subcutaneous administration of 12 mg methylnaltrexone. In Study B, the single and multiple dose pharmacokinetics of methylnaltrexone (MNTX) and its metabolites (M2, M4, and M5) were examined following a 20-minute short intravenous infusion of 24 mg of methylnaltrexone (MNTX).
Pharmacokinetic parameters included Cmax, AUCt, AUCinf, tmax, t1/2, % Re24, accumulation factor (R) as defined below and metabolite/parent drug ratio.
R=Accumulation Factor(based on AUC0-24(ng·h/mL):Day 7 AUC AUC0-24/Day 1 AUC0-24
Metabolite-Parent Drug ratio(based on ng·h/mL)(%)=100*(Metabolite AUC24/MNTX AUC24)
Note: AUCinf was used in place of AUC AUC0-24 for R and Metabolite-Parent Drug ratio computations following IV administration.

[2] = Yuan et al. 2005 J Clin Pharm 45:538-546; cited from earlier work
[3] = Comparative bioavailability: single oral 150, 300, 450 mg MNTX tablets vs 12 mg SC injection, crossover; assay type: in vivo, human; details: for t1/2 / half-life: harmonic mean; for bioavailability: arithmetic mean AUC0-∞, read-out: dose-normalized bioavailability of oral MNTX relative to SC MNTX
Description: The oral dosage levels and formulation of MNTX evaluated here were the same as those in a phase 3 study of oral MNTX tablets, with the exception of a nonfunctional coating on the MNTX tablets. […] The pharmacokinetics of the uncoated tablet used in the phase 3 study and the coated tablets used in the current study were compared in a separate study. […] A single-dose pharmacokinetic profile of oral MNTX tablets was also planned for evaluation in this study.
Presented herein is a randomized, open-label, crossover study consisting of 6 dosing sequences, each with 2 dosing periods; the dosing periods were separated by 7 days. All subjects were housed in the clinical research unit from Day −1 through Day 14 and were discharged on Day 15, which concluded their participation in the study. Prior to receiving study drug on Days 1 and 8, the subjects underwent an overnight fast of at least 10 hours, beginning on Days 0 and 7, respectively. In both dosing periods, the subjects received a single oral dose of MNTX tablets (150, 300, or 450 mg) or a single SC injection of MNTX (12 mg). The dosing was conducted in a crossover fashion (e.g., a tablet was administered at one visit and a SC injection was administered at the alternate visit). The strength of oral methylnaltrexone dose (150 mg, 300 mg, or 450 mg) and the dosing sequence (Day 1: oral tablet; Day 8: SC injection vs the alternate dosing order) for each subject were determined by random assignment. Each oral dose was administered with 240 mL of room temperature drinking water. The subjects were instructed to drink all of the water and were told to swallow the tablets whole (e.g., not to chew, divide, or crush them). Blood samples were collected for pharmacokinetic analyses prior to dosing (approximately 1 hour prior) on Day 1, and at 0.25, 0.5, 1, 2, 4, 6, 8, 10, 12, 16, 24, 36, 48, 72, 96, 120, 144, and 168 hours after dosing on Days 1 and 8.
Each tablet contained 150 mg of the active pharmaceutical ingredient, MNTX.
Each injection vial contained 12 mg of the active pharmaceutical ingredient, MNTX, per 0.6 mL of solution (i.e., 20 mg/mL solution).
In this study, all 48 enrolled subjects received study drug in each of the 2 study periods and were included in the safety and pharmacokinetic analyses.
This was a phase 1, randomized, open-label, crossover study consisting of 6 dosing sequences, each with 2 dosing periods. In both dosing periods, the subjects received a single oral dose of MNTX tablets (150, 300, or 450 mg) or a single SC injection of MNTX (12 mg). The dosing was conducted in a crossover fashion (i.e., a tablet was administered at one visit and a SC injection was administered at the alternate visit).
Forty-eight subjects were enrolled and 47 subjects (97.9%) completed the study; one subject discontinued due to personal reasons after receiving study drug in both study periods. The subjects received study drug in accordance with the randomization schedule; specifically, 16 subjects each received a single oral dose of 150, 300, and 450 mg MNTX tablets and all 48 subjects received a single 12 mg SC injection of MNTX.

[4] = human, plasma, 12 mg SC Injection, Day 1, mean
[5] = human, plasma, 12 mg SC Injection, Day 7, mean
[6] = MNTX 12 mg SC Injection, single dose, mean
[7] = MNTX 150 mg Tablet vs 12 mg SC Injection
[8] = MNTX 150 mg Tablet, single oral dose, mean
[9] = MNTX 300 mg Tablet, single oral dose, mean
[10] = MNTX 450 mg Tablet, single oral dose, mean

With `C[N@+]1(CC2CC2)CC[C@]23c4c5ccc(O)c4O[C@H]2C(=O)CC[C@@]3(O)[C@H]1C5.[Br-]` [MNTX, (R)—N-(cyclopropylmethyl) noroxymorphone methobromide] the AUCinf ([1]; 12 mg SC Injection, Day 7, mean) was 223.0 ng·h/mL, the “R (SC), accumulation factor” value ([1]; 12 mg SC Injection, AUC0-24 on Day 7/AUC0-24 on Day 1) was 1.05 and the AUC(0-t) [1, 4] was 218 ng·h/mL. It also gave a Cmax [1, 4] of 140 ng/mL, an AUC(0-t) [1, 5] of 223 ng·h/mL and a Cmax [1, 5] of 119 ng/mL. It also gave a bioavailability ([1]; human, plasma, subcutaneous, 12 mg SC vs 24 mg IV infusion, cross-study, read-out: bioavailability of subcutaneous injection relative to short-term infusion) of 112%, an AUC(0-inf) [1, 4] of 223 ng·h/mL and a Tmax ([1]; human, plasma, 12 mg SC Injection, Day 1, median, read-out: Tmax) of 15 min. For the same compound, the half-life ([1]; human, plasma, 12 mg SC Injection, day not given, harmonic mean) was 320 min, the “dose recovered in urine following IV administration” value [2] was 31.5%-49.6% and the t1/2 ([3]; MNTX 12 mg SC Injection, single dose) was 9.16 h. The “AUC0-∞” value [3, 6] was 269.09 ng·h/mL, the CL/F [3, 6] was 45698.7 mL/h and 45698.71 mL/h and the Cmax [3, 6] was 174.01 ng/mL. For the same compound, the “AUC0-t GMR, tablet/injection × 100” value [3, 7] was 35.61%, the “AUC0-∞ GMR, tablet/injection × 100” value [3, 7] was 36.41% and the “Cmax GMR, tablet/injection × 100” value [3, 7] was 5.779%. For the same compound, the t1/2 ([3]; MNTX 150 mg Tablet, single oral dose) was 13.95 h, the “AUC0-∞” value [3, 8] was 106.87 ng·h/mL and the CL/F [3, 8] was 1735472.22 mL/h. For the same compound, the Cmax [3, 8] was 13.22 ng/mL, the “AUC0-t GMR, tablet/injection × 100” value ([3]; MNTX 300 mg Tablet vs 12 mg SC Injection) was 74.73% and the t1/2 ([3]; MNTX 300 mg Tablet, single oral dose) was 14.16 h. The “AUC0-∞” value [3, 9] was 231.24 ng·h/mL, the CL/F [3, 9] was 1564638.99 mL/h and the Cmax [3, 9] was 26.22 ng/mL. For the same compound, the “AUC0-t GMR, tablet/injection × 100” value ([3]; MNTX 450 mg Tablet vs 12 mg SC Injection) was 121.4%, the t1/2 ([3]; MNTX 450 mg Tablet, single oral dose) was 16.57 h and the “AUC0-∞” value [3, 10] was 373.32 ng·h/mL. For the same compound, the CL/F [3, 10] was 1664001.3 mL/h and 1664001.28 mL/h, the Cmax [3, 10] was 39.89 ng/mL and the AUC(0-t) ([3]; human, plasma, oral, 150 mg, MNTX 150 mg Tablet, read-out: AUC0-t, Geometric LSM) was 94.2 ng·h/mL. The AUC(0-inf) ([3]; human, plasma, oral, 150 mg, MNTX 150 mg Tablet, read-out: AUC0-∞, Geometric LSM) was 96.7 ng·h/mL, the Cmax ([3]; human, plasma, oral, 150 mg, MNTX 150 mg Tablet, read-out: Cmax, Geometric LSM) was 9.47 ng/mL and the AUC(0-t) ([3]; human, plasma, oral, 300 mg, MNTX 300 mg Tablet, read-out: AUC0-t, Geometric LSM) was 198 ng·h/mL. It also gave an AUC(0-inf) ([3]; human, plasma, oral, 300 mg, MNTX 300 mg Tablet, read-out: AUC0-∞, Geometric LSM) of 200 ng·h/mL, a Cmax ([3]; human, plasma, oral, 300 mg, MNTX 300 mg Tablet, read-out: Cmax, Geometric LSM) of 21.8 ng/mL and an AUC(0-t) ([3]; human, plasma, oral, 450 mg, MNTX 450 mg Tablet, read-out: AUC0-t, Geometric LSM) of 321 ng·h/mL. The AUC(0-inf) ([3]; human, plasma, oral, 450 mg, MNTX 450 mg Tablet, read-out: AUC0-∞, Geometric LSM) was 327 ng·h/mL, the Cmax ([3]; human, plasma, oral, 450 mg, MNTX 450 mg Tablet, read-out: Cmax, Geometric LSM) was 32.7 ng/mL and the half-life ([3]; human, plasma, po, 150 mg, MNTX 150 mg Tablet, single oral dose) was 840 min. It also gave an AUC(0-t) ([3]; human, plasma, po, 150 mg, MNTX 150 mg Tablet, single oral dose, mean, read-out: AUC0-t) of 105 ng·h/mL, an AUC(0-inf) ([3]; human, plasma, po, 150 mg, MNTX 150 mg Tablet, single oral dose, mean, read-out: AUC0-∞) of 107 ng·h/mL and a Cmax ([3]; human, plasma, po, 150 mg, MNTX 150 mg Tablet, single oral dose, mean, read-out: Cmax) of 13.2 ng/mL. For the same compound, the half-life ([3]; human, plasma, po, 300 mg, MNTX 300 mg Tablet, single oral dose) was 852 min, the AUC(0-t) ([3]; human, plasma, po, 300 mg, MNTX 300 mg Tablet, single oral dose, mean, read-out: AUC0-t) was 229 ng·h/mL and the AUC(0-inf) ([3]; human, plasma, po, 300 mg, MNTX 300 mg Tablet, single oral dose, mean, read-out: AUC0-∞) was 231 ng·h/mL. The Cmax ([3]; human, plasma, po, 300 mg, MNTX 300 mg Tablet, single oral dose, mean, read-out: Cmax) was 26.2 ng/mL, the half-life ([3]; human, plasma, po, 450 mg, MNTX 450 mg Tablet, single oral dose) was 996 min and the AUC(0-t) ([3]; human, plasma, po, 450 mg, MNTX 450 mg Tablet, single oral dose, mean, read-out: AUC0-t) was 367 ng·h/mL. It also gave an AUC(0-inf) ([3]; human, plasma, po, 450 mg, MNTX 450 mg Tablet, single oral dose, mean, read-out: AUC0-∞) of 373 ng·h/mL, a Cmax ([3]; human, plasma, po, 450 mg, MNTX 450 mg Tablet, single oral dose, mean, read-out: Cmax) of 39.9 ng/mL and a half-life ([3]; human, plasma, sc, 12 mg, MNTX 12 mg SC Injection, single dose) of 552 min. It also gave an AUC(0-t) ([3]; human, plasma, sc, 12 mg, MNTX 12 mg SC Injection, single dose, mean, read-out: AUC0-t) of 268 ng·h/mL, an AUC(0-inf) ([3]; human, plasma, sc, 12 mg, MNTX 12 mg SC Injection, single dose, mean, read-out: AUC0-∞) of 269 ng·h/mL and a Cmax ([3]; human, plasma, sc, 12 mg, MNTX 12 mg SC Injection, single dose, mean, read-out: Cmax) of 174 ng/mL. For the same compound, the AUC(0-t) ([3]; human, plasma, sc, 12 mg, MNTX 12 mg SC Injection, read-out: AUC0-t, Geometric LSM) was 264 ng·h/mL, the AUC(0-inf) ([3]; human, plasma, sc, 12 mg, MNTX 12 mg SC Injection, read-out: AUC0-∞, Geometric LSM) was 266 ng·h/mL and the Cmax ([3]; human, plasma, sc, 12 mg, MNTX 12 mg SC Injection, read-out: Cmax, Geometric LSM) was 164 ng/mL. It also gave a Tmax ([3]; human, plasma, 12 mg SC injection, read-out: median Tmax (converted)) of 0.25 h, a Tmax ([3]; human, plasma, MNTX 150 mg Tablet, single oral dose, median, read-out: Tmax) of 2 h and a Tmax ([3]; human, plasma, MNTX 300 mg Tablet, single oral dose, median, read-out: Tmax) of 1.5 h. The Tmax ([3]; human, plasma, MNTX 450 mg Tablet, single oral dose, median, read-out: Tmax) was 2 h, the bioavailability ([3]; human, plasma, oral 150 mg vs 12 mg SC) was 3.2% and the bioavailability ([3]; human, plasma, oral 300 mg vs 12 mg SC) was 3.4%. The bioavailability ([3]; human, plasma, oral 450 mg vs 12 mg SC) was 3.7%, the Tmax ([3]; human, plasma, oral MNTX tablets 150 mg to 450 mg, read-out: median Tmax, range over the oral doses) was 1.5 to 2 h and the tolerability ([3]; oral 150, 300, 450 mg tablets and 12 mg SC injection, healthy volunteers) was “well tolerated”. For the same compound, the “Tmax shorter following SC MNTX 12 mg versus oral MNTX 150, 300, and 450 mg” value ([3]; single doses) was 6- to 8 fold, the “mean AUC0-∞ following SC MNTX 12 mg higher versus oral MNTX 300 mg” value ([3]; single doses) was 16% and the “mean AUC0-∞ following SC MNTX 12 mg lower versus oral MNTX 450 mg” value ([3]; single doses) was 28%. For the same compound, the “t1/2 shorter following SC MNTX 12 mg versus oral MNTX 150, 300, and 450 mg” value ([3]; single doses) was 5 to 7 h.
